From ChEMBL document CHEMBL1201862, “PubChem BioAssay data set” (2004)
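Interpolation was linear, between the two tested concentrations surrounding the appropriate level; five concentrations were tested over 48 hours in 96-well plates. At the GI50, growth is halved.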 Calls of active or inactive are those of the source. Rule as the data show it: active = GI50 up to about 1.1 µM and inactive = higher.

How the values were obtained:
Experiment in all cases: inhibition of tumour cell growth, NCI panel, 48 h
HCT-15 = system: HCT-15
MOLT-4 = system: MOLT-4
MDA-MB-231 = system: MDA-MB-231
SK-MEL-2 = system: SK-MEL-2
OVCAR-5 = system: OVCAR-5
HL-60 = system: HL-60
LOX IMVI = system: LOX IMVI
M14 = system: M14
HCC 2998 = system: HCC 2998
ACHN = system: ACHN
Malme-3M = system: Malme-3M
U-251 = system: U-251
SK-MEL-5 = system: SK-MEL-5
NCI/ADR-RES = system: NCI/ADR-RES
786-0 = system: 786-0
MCF7 = system: MCF7
OVCAR-4 = system: OVCAR-4
UO-31 = system: UO-31
RXF 393 = system: RXF 393
SF-539 = system: SF-539

Structure (SMILES) | GI50 (HCT-15) [µM] | GI50 (MOLT-4) | GI50 (MDA-MB-231) | GI50 (SK-MEL-2) | GI50 (OVCAR-5) | GI50 (HL-60) | GI50 (LOX IMVI) | GI50 (M14) | GI50 (HCC 2998) | GI50 (ACHN) | GI50 (Malme-3M) | GI50 (U-251) | GI50 (SK-MEL-5) | GI50 (NCI/ADR-RES) | GI50 (786-0) | GI50 (MCF7) | GI50 (OVCAR-4) | GI50 (UO-31) | GI50 (RXF 393) | GI50 (SF-539)
NNS(=O)(=O)c1ccc(/C=C2\NC(=O)NC2=O)cc1 | > 100 | > 100 µM (inactive) | > 100 µM (inactive) | 37.9 µM (inactive) | 58.1 µM (inactive) | > 100 µM (inactive) | > 100 µM (inactive) | > 100 µM (inactive) | > 100 µM (inactive) | > 100 µM (inactive) | > 100 µM (inactive) | > 100 µM (inactive) | > 100 µM (inactive) | > 100 µM (inactive) | > 100 µM (inactive) | > 100 µM (inactive) | > 100 µM (inactive) | > 100 µM (inactive) | – | –
CCOC(=O)C1(CC(=O)O)CCCC1=O (configuration not stated) | > 100 | 0.475 µM (active) | > 100 µM (inactive) | > 100 µM (inactive) | > 100 µM (inactive) | > 100 µM (inactive) | > 100 µM (inactive) | > 100 µM (inactive) | – | > 100 µM (inactive) | > 100 µM (inactive) | > 100 µM (inactive) | > 100 µM (inactive) | > 100 µM (inactive) | > 100 µM (inactive) | > 100 µM (inactive) | > 100 µM (inactive) | > 100 µM (inactive) | > 100 µM (inactive) | > 100 µM (inactive)
O=C1CCCC1CN1CCCC1 (configuration not stated) | 2 | 0.206 µM (active) | 15.5 µM (inactive) | 7.14 µM (inactive) | 18.3 µM (inactive) | 0.367 µM (active) | 8.75 µM (inactive) | 1.67 µM (inactive) | > 45.2 µM (inactive) | 6.08 µM (inactive) | 2.04 µM (inactive) | 23 µM (inactive) | 18 µM (inactive) | 15.7 µM (inactive) | 5.22 µM (inactive) | 2.2 µM (inactive) | 1.93 µM (inactive) | 7.31 µM (inactive) | – | 18.8 µM (inactive)
O=C(Cc1ccc([N+](=O)[O-])cc1)OCC#CCOC(=O)Cc1ccc([N+](=O)[O-])cc1 | > 10 | > 10 µM (inactive) | > 10 µM (inactive) | > 10 µM (inactive) | > 10 µM (inactive) | > 10 µM (inactive) | > 10 µM (inactive) | > 10 µM (inactive) | – | > 10 µM (inactive) | > 10 µM (inactive) | > 10 µM (inactive) | > 10 µM (inactive) | > 10 µM (inactive) | > 10 µM (inactive) | > 10 µM (inactive) | > 10 µM (inactive) | > 10 µM (inactive) | > 10 µM (inactive) | > 10 µM (inactive)
COc1nc2c(c(=O)n1C)N[C@H]1[C@H](OC(C)=O)[C@@H](OC(C)=O)CO[C@H]1N2 | > 100 | > 100 µM (inactive) | > 100 µM (inactive) | > 100 µM (inactive) | > 100 µM (inactive) | > 100 µM (inactive) | > 100 µM (inactive) | > 100 µM (inactive) | – | > 100 µM (inactive) | > 100 µM (inactive) | > 100 µM (inactive) | > 100 µM (inactive) | > 100 µM (inactive) | > 100 µM (inactive) | > 100 µM (inactive) | > 100 µM (inactive) | > 100 µM (inactive) | > 100 µM (inactive) | > 100 µM (inactive)
COc1c(-c2nc3ccc(N4CCN(C)CC4)nc3[nH]2)cc(OC)c2c1nc(COC(C)=O)n2C | > 100 | > 100 µM (inactive) | 51.3 µM (inactive) | 33 µM (inactive) | > 100 µM (inactive) | – | > 100 µM (inactive) | > 100 µM (inactive) | – | > 100 µM (inactive) | > 100 µM (inactive) | 97.1 µM (inactive) | > 100 µM (inactive) | > 100 µM (inactive) | > 100 µM (inactive) | 65.3 µM (inactive) | 89.9 µM (inactive) | > 100 µM (inactive) | 19 µM (inactive) | –
NC1=NC2(COC(c3ccccc3)(c3ccccc3)c3ccccc3)OC(COC(c3ccccc3)(c3ccccc3)c3ccccc3)C(O)C2O1 (configuration not stated) | > 100 | 13.2 µM (inactive) | 67.1 µM (inactive) | 5.77 µM (inactive) | 81.7 µM (inactive) | 8.59 µM (inactive) | > 100 µM (inactive) | > 100 µM (inactive) | – | 88.3 µM (inactive) | 18.4 µM (inactive) | > 100 µM (inactive) | 26.1 µM (inactive) | 21.1 µM (inactive) | > 100 µM (inactive) | > 100 µM (inactive) | – | 13.4 µM (inactive) | 66.5 µM (inactive) | 71.6 µM (inactive)
O=C1/C(=C\c2cccc(Oc3ccccc3)c2)S(=O)(=O)C(c2ccccc2)N1c1cccc(Cl)c1 (configuration not stated) | 40.6 | 30.1 µM (inactive) | > 100 µM (inactive) | > 100 µM (inactive) | > 100 µM (inactive) | – | 19 µM (inactive) | 40.8 µM (inactive) | > 100 µM (inactive) | 71.8 µM (inactive) | > 100 µM (inactive) | 50.4 µM (inactive) | 43.9 µM (inactive) | 35.4 µM (inactive) | 46.5 µM (inactive) | 30.2 µM (inactive) | 98.9 µM (inactive) | 34.7 µM (inactive) | 36.3 µM (inactive) | 36.1 µM (inactive)
CC1=CCC[C@H]2[C@](C)(CC3=CC(=O)C4SCCSC4C3=O)[C@@H](C)CC[C@]12C (some centres not stated) | 23.3 | 21.6 µM (inactive) | 13.2 µM (inactive) | 1.71 µM (inactive) | 18.6 µM (inactive) | – | 11.2 µM (inactive) | 14.3 µM (inactive) | 21.9 µM (inactive) | 18.2 µM (inactive) | – | 14.5 µM (inactive) | 13.8 µM (inactive) | 19.1 µM (inactive) | 18.5 µM (inactive) | 20.5 µM (inactive) | 24.6 µM (inactive) | 17.6 µM (inactive) | 18.6 µM (inactive) | 21 µM (inactive)
CC(C)(CC(O)C#N)/[N+]([O-])=[N+](\[O-])C(C)(C)CC(O)C#N (configuration not stated) | 15.2 | 10.3 µM (inactive) | 23.9 µM (inactive) | 43 µM (inactive) | 23.5 µM (inactive) | – | 17.6 µM (inactive) | 16 µM (inactive) | 17.2 µM (inactive) | 23.2 µM (inactive) | 21.6 µM (inactive) | 26.5 µM (inactive) | 29.2 µM (inactive) | 38.2 µM (inactive) | 18.2 µM (inactive) | 20.7 µM (inactive) | 24.1 µM (inactive) | 26.9 µM (inactive) | 15.9 µM (inactive) | –
Clc1ccc2[nH]c(CC3CCCC3)nc2c1 | 6.87 | 11 µM (inactive) | 17.7 µM (inactive) | 17.9 µM (inactive) | 24.5 µM (inactive) | – | 15.8 µM (inactive) | 18.3 µM (inactive) | 20 µM (inactive) | 17.1 µM (inactive) | 25.5 µM (inactive) | 17.6 µM (inactive) | 11 µM (inactive) | 13.8 µM (inactive) | 16.6 µM (inactive) | 6.61 µM (inactive) | 14.9 µM (inactive) | – | 14.7 µM (inactive) | 21.4 µM (inactive)
CC(=O)NC1C(OCC(=O)NC(C)C(=O)NC(CCC(=O)NCCCCCNc2ccc([N+](=O)[O-])c3[nH]c4ccccc4c(=O)c23)C(N)=O)C(O)C(CO)OC1(C)OCc1ccccc1 (configuration not stated) | > 50 | 13.3 µM (inactive) | 12 µM (inactive) | > 50 µM (inactive) | > 50 µM (inactive) | – | > 50 µM (inactive) | > 50 µM (inactive) | > 50 µM (inactive) | 31.6 µM (inactive) | 12 µM (inactive) | 39.3 µM (inactive) | > 50 µM (inactive) | > 50 µM (inactive) | 13 µM (inactive) | > 50 µM (inactive) | > 50 µM (inactive) | > 50 µM (inactive) | 3.48 µM (inactive) | > 50 µM (inactive)
CCn1cc(C(=O)O)c(=O)c2ccc(C)nc21 [NALIDIXIC ACID] | > 100 | > 100 µM (inactive) | > 100 µM (inactive) | > 100 µM (inactive) | > 100 µM (inactive) | > 100 µM (inactive) | > 100 µM (inactive) | > 100 µM (inactive) | > 100 µM (inactive) | > 100 µM (inactive) | > 100 µM (inactive) | > 100 µM (inactive) | > 100 µM (inactive) | > 100 µM (inactive) | > 100 µM (inactive) | > 100 µM (inactive) | > 100 µM (inactive) | 67 µM (inactive) | – | > 100 µM (inactive)
Cc1ccsc1C(=S)Nc1ccc(Cl)c(C(=O)OC(C(C)C)C(C)C)c1 | 23.6 | 5.51 µM (inactive) | 17.2 µM (inactive) | 11.7 µM (inactive) | 57.9 µM (inactive) | 11.4 µM (inactive) | 18 µM (inactive) | 17.9 µM (inactive) | 16.1 µM (inactive) | 25.9 µM (inactive) | – | 24.4 µM (inactive) | 15.4 µM (inactive) | 13.6 µM (inactive) | 19.8 µM (inactive) | 16.1 µM (inactive) | 29.1 µM (inactive) | 13.1 µM (inactive) | – | 39.6 µM (inactive)
CN(C)CCCN1c2ccccc2CCc2cc([N+](=O)[O-])ccc21 | 34.4 | 26.2 µM (inactive) | 22.2 µM (inactive) | 21.1 µM (inactive) | 25.5 µM (inactive) | – | 19.1 µM (inactive) | 18.9 µM (inactive) | 17.7 µM (inactive) | 29.4 µM (inactive) | 18.8 µM (inactive) | 26.3 µM (inactive) | 15.8 µM (inactive) | 26.9 µM (inactive) | 24.5 µM (inactive) | 27.3 µM (inactive) | 24.4 µM (inactive) | 22.2 µM (inactive) | 14.2 µM (inactive) | 24.1 µM (inactive)
